The values that follow come from US5232923A, “Catechol derivatives and pharmaceutical preparations containing same” (Mitsui Toatsu Chemicals, Incorporated, priority 1988, dated 1993).

The assay deals with production and secretion of NGF in mouse L-M cells. The assay is described as follows: Promoting activity for the production and secretion of NGF in mouse L-M cells (ELISA of medium after 24 h). In kind it is cell-based. Particulars: for fold induction at 200 µM: Mus musculus, 24 h, read-out: NGF Increase Ratio; for NGF Concentration: 24 hours, mean of four determinations. The procedure: Promoting activity for the production and secretion of NGF in mouse L-M cells
The medium was cultured for 3 days at a temperature of 37° C. […] The sample of the derivative tested is contained in the medium at a prescribed concentration as illustrated in the Tables. […] Data are expressed as fold increase in NGF content of the medium over that cultivated in the absence of the derivative to be tested. […] Data are presented as the mean of four determinations. The results are illustrated in Tables 1-5.
Background: In an ELISA, binding on a coated surface is turned into a signal by an enzyme label.

[1] abbreviates: Table 1, L-M cells, sample concentration 0.2 mM, control 0.33.
The mark [2] stands for this setting: Table 1, L-M cells, sample concentration 0.2 mM, fold increase over control (1.00).
The mark [3] stands for this setting: Table 2, L-M cells, sample concentration 0.2 mM, fold increase over control (1.00).
[4] abbreviates: Table 2, L-M cells, sample concentration 0.2 mM, control 0.34.

The structures appear in SMILES notation. Where two headings read alike, the source gives them in different places.

For `NCCc1ccc(O)c(O)c1` [Comparative compound, reference compound], the fold induction at 200 µM stood at 3.94. In addition, the “NGF Concentration” value under setting [1] is recorded as 1.30 ng/well.
Regarding `CCC(=O)NCCc1ccc(O)c(O)c1` [Compound 2], the fold induction at 200 µM under setting [2] turned out to be 9.39. Besides, the “NGF Concentration” value under setting [1] turned out to be 3.10 ng/well.
`CC(=O)NCc1ccc(O)c(O)c1` [Compound 4]: under setting [2], the fold induction at 200 µM was 7.88. The “NGF Concentration” value under setting [1] is on record as 2.60 ng/well.
`CCC(=O)NCc1ccc(O)c(O)c1` [Compound 5]: the fold induction at 200 µM under setting [2] amounted to 8.33. Also, the “NGF Concentration” value under setting [1] was 2.75 ng/well.
The corresponding values for `CCCC(=O)NCc1ccc(O)c(O)c1` [Compound 6] are 8.94 and 2.95 ng/well.
Take `CCC(=O)NCCCc1ccc(O)c(O)c1` [Compound 8]: under setting [2], the fold induction at 200 µM is 8.79. Further, under setting [1], the “NGF Concentration” value is recorded as 2.90 ng/well.
Regarding `CCCC(=O)NCCCc1ccc(O)c(O)c1` [Compound 9], under setting [2], the fold induction at 200 µM amounted to 8.33. For the same compound, under setting [1], the “NGF Concentration” value is 2.75 ng/well.
Turning to `CCC(=O)N(C)CCc1ccc(O)c(O)c1` [Compound 11], the fold induction at 200 µM under setting [2] came out at 10.1. The “NGF Concentration” value under setting [1] was found to be 3.32 ng/well.
Turning to `CCC(=O)NCCc1ccc(OC(C)=O)c(OC(C)=O)c1` [Compound 14], the fold induction at 200 µM under setting [2] amounted to 10.6. Moreover, under setting [1], the “NGF Concentration” value is reported as 3.49 ng/well.
For `CC(=O)NCc1ccc(OC(C)=O)c(OC(C)=O)c1` [Compound 16], the fold induction at 200 µM under setting [2] came out at 8.24. Besides, the “NGF Concentration” value under setting [1] turned out to be 2.72 ng/well.
The corresponding values for `CC(=O)Oc1ccc(CCN(C)C(C)=O)cc1OC(C)=O` [Compound 18] are 12 and 3.95 ng/well.
For `CCCNCCc1ccc(O)c(O)c1` [Compound 20], the fold induction at 200 µM amounted to 11. Under setting [1], the “NGF Concentration” value was 3.62 ng/well.
Turning to `CNCc1ccc(O)c(O)c1` [Compound 22], the fold induction at 200 µM under setting [2] stood at 9. Besides, under setting [1], the “NGF Concentration” value stood at 2.97 ng/well.
The matching figures for `CCNCc1ccc(O)c(O)c1` [Compound 23]: 9.33 and 3.08 ng/well.
Regarding `CCCNCc1ccc(O)c(O)c1` [Compound 24], under setting [2], the fold induction at 200 µM was 8.91. In addition, the “NGF Concentration” value under setting [1] turned out to be 2.94 ng/well.
Turning to `CCCCNCc1ccc(O)c(O)c1` [Compound 25], the fold induction at 200 µM under setting [2] came to 8.82. For the same compound, under setting [1], the “NGF Concentration” value is 2.91 ng/well.
For `CCNCCCc1ccc(O)c(O)c1` [Compound 27], under setting [2], the fold induction at 200 µM stood at 8.76. The “NGF Concentration” value under setting [1] came out at 2.89 ng/well.
Regarding `CCCNCCCc1ccc(O)c(O)c1` [Compound 28], under setting [2], the fold induction at 200 µM came to 8.45. For the same compound, the “NGF Concentration” value under setting [1] stood at 2.79 ng/well.
Turning to `CC(=O)Oc1ccc(CCN(C)C)cc1OC(C)=O` [Compound 30], the fold induction at 200 µM is 11.5. In addition, under setting [1], the “NGF Concentration” value is on record as 3.80 ng/well.
Turning to `CCN(C)CCc1ccc(OC(C)=O)c(OC(C)=O)c1` [Compound 31], the fold induction at 200 µM stood at 11.4. Under setting [1], the “NGF Concentration” value worked out at 3.76 ng/well.
For `COC(=O)CCc1ccc(O)c(O)c1` [Compound 34], under setting [3], the fold induction at 200 µM came to 5.79. The “NGF Concentration” value under setting [4] was 1.97 ng/well.
As to `CCCOC(=O)CCc1ccc(O)c(O)c1` [Compound 36], the fold induction at 200 µM under setting [3] was 5.53. Further, the “NGF Concentration” value under setting [4] was 1.88 ng/well.
As for `COC(=O)Cc1ccc(O)c(O)c1` [Compound 38], the fold induction at 200 µM under setting [3] is 4.79. For the same compound, under setting [4], the “NGF Concentration” value is given as 1.63 ng/well.
Turning to `CCCOC(=O)Cc1ccc(O)c(O)c1` [Compound 40], under setting [3], the fold induction at 200 µM came to 5.41. Also, the “NGF Concentration” value under setting [4] is listed as 1.84 ng/well.
`CCCCOC(=O)Cc1ccc(O)c(O)c1` [Compound 41]: under setting [3], the fold induction at 200 µM was 5.26. Further, the “NGF Concentration” value under setting [4] stood at 1.79 ng/well.
On to `COC(=O)CCCc1ccc(O)c(O)c1` [Compound 42], for which the fold induction at 200 µM under setting [3] turned out to be 5.32. Further, the “NGF Concentration” value under setting [4] is given as 1.81 ng/well.
As to `CCCOC(=O)CCCc1ccc(O)c(O)c1` [Compound 44], the fold induction at 200 µM under setting [3] came to 5.62. For the same compound, under setting [4], the “NGF Concentration” value was 1.91 ng/well.
Turning to `CCCCOC(=O)CCCc1ccc(O)c(O)c1` [Compound 45], the fold induction at 200 µM under setting [3] is 5.41. The “NGF Concentration” value under setting [4] is 1.84 ng/well.
Take `COC(=O)CCc1ccc(OC(C)=O)c(OC(C)=O)c1` [Compound 46]: the fold induction at 200 µM under setting [3] stood at 5.91. Besides, the “NGF Concentration” value under setting [4] is on record as 2.01 ng/well.
As for `CCCOC(=O)CCc1ccc(OC(C)=O)c(OC(C)=O)c1` [Compound 48], the fold induction at 200 µM under setting [3] worked out at 6.26. Also, the “NGF Concentration” value under setting [4] is recorded as 2.13 ng/well.
`COC(=O)Cc1ccc(OC(C)=O)c(OC(C)=O)c1` [Compound 50]: under setting [3], the fold induction at 200 µM is 5.09. For the same compound, the “NGF Concentration” value under setting [4] worked out at 1.73 ng/well.
For `CCCOC(=O)Cc1ccc(OC(C)=O)c(OC(C)=O)c1` [Compound 52], the fold induction at 200 µM under setting [3] came to 5.53. Also, the “NGF Concentration” value under setting [4] came to 1.88 ng/well.
As to `CCCCOC(=O)Cc1ccc(OC(C)=O)c(OC(C)=O)c1` [Compound 53], the fold induction at 200 µM under setting [3] is 4.79. For the same compound, under setting [4], the “NGF Concentration” value is 1.63 ng/well.
Consider `COC(=O)CCCc1ccc(OC(C)=O)c(OC(C)=O)c1` [Compound 54], for which the fold induction at 200 µM under setting [3] turned out to be 5.53. The “NGF Concentration” value under setting [4] worked out at 1.88 ng/well.
On to `CCCOC(=O)CCCc1ccc(OC(C)=O)c(OC(C)=O)c1` [Compound 56], for which the fold induction at 200 µM under setting [3] came to 5.09. Also, the “NGF Concentration” value under setting [4] is 1.73 ng/well.
In the case of `CCCCOC(=O)CCCc1ccc(OC(C)=O)c(OC(C)=O)c1` [Compound 57], under setting [3], the fold induction at 200 µM amounted to 5.32. Besides, the “NGF Concentration” value under setting [4] turned out to be 1.81 ng/well.
In the case of `CNC(=O)CCc1ccc(O)c(O)c1` [Compound 59, N-Methyl-3,4-dihydroxyphenylpropionamide], the fold induction at 200 µM under setting [3] came out at 5.62. The “NGF Concentration” value under setting [4] was found to be 1.91 ng/well.
For the compound `CCCNC(=O)CCc1ccc(O)c(O)c1` [Compound 61], the fold induction at 200 µM under setting [3] is 5.91. Besides, the “NGF Concentration” value under setting [4] amounted to 2.01 ng/well.
The corresponding values for `NC(=O)Cc1ccc(O)c(O)c1` [Compound 62] are 4.79 and 1.63 ng/well.
Take `CNC(=O)Cc1ccc(O)c(O)c1` [Compound 63]: the fold induction at 200 µM under setting [3] stood at 5.82. The “NGF Concentration” value under setting [4] is recorded as 1.98 ng/well.
With `CCCNC(=O)Cc1ccc(O)c(O)c1` [Compound 65], under setting [3], the fold induction at 200 µM was 5.21. For the same compound, the “NGF Concentration” value under setting [4] was determined as 1.77 ng/well.
Turning to `CCCCNC(=O)Cc1ccc(O)c(O)c1` [Compound 66], the fold induction at 200 µM under setting [3] worked out at 5.85. The “NGF Concentration” value under setting [4] was 1.99 ng/well.
Consider `NC(=O)CCCc1ccc(O)c(O)c1` [Compound 67], for which the fold induction at 200 µM under setting [3] was determined as 4.97. The “NGF Concentration” value under setting [4] was determined as 1.69 ng/well.
Regarding `CNC(=O)CCCc1ccc(O)c(O)c1` [Compound 68], under setting [3], the fold induction at 200 µM is 5.09. In addition, the “NGF Concentration” value under setting [4] was found to be 1.73 ng/well.
For the compound `CCCNC(=O)CCCc1ccc(O)c(O)c1` [Compound 70], the fold induction at 200 µM under setting [3] is 5.38. For the same compound, under setting [4], the “NGF Concentration” value stood at 1.83 ng/well.
For `CCCCNC(=O)CCCc1ccc(O)c(O)c1` [Compound 71], the fold induction at 200 µM under setting [3] was 5.71. For the same compound, the “NGF Concentration” value under setting [4] came out at 1.83 ng/well.
With `CC(=O)Oc1ccc(CC(N)=O)cc1OC(C)=O` [Compound 75], the fold induction at 200 µM under setting [3] was 5.53. For the same compound, the “NGF Concentration” value under setting [4] worked out at 2.03 ng/well.
In the case of `CCCCNC(=O)Cc1ccc(OC(C)=O)c(OC(C)=O)c1` [Compound 77], the fold induction at 200 µM under setting [3] is 5.26. Moreover, the “NGF Concentration” value under setting [4] was found to be 1.86 ng/well.
The matching figures for `CC(=O)Oc1ccc(CCCC(N)=O)cc1OC(C)=O` [Compound 78]: 4.94 and 1.79 ng/well.
`CCCCNC(=O)CCCc1ccc(OC(C)=O)c(OC(C)=O)c1` [Compound 80]: the fold induction at 200 µM under setting [3] was found to be 5.74. Also, under setting [4], the “NGF Concentration” value amounted to 1.95 ng/well.
